From ChEMBL document CHEMBL1201862, “PubChem BioAssay data set” (2004)
Active and inactive are the calls of the source.

What was measured:
[1] = biological target: T1, RNA-binding protein pos-1 (Caenorhabditis elegans, UniProt G5EF15); assay: inhibitors of POS-1/mex-3 RNA binding, dose response, biochemical, fluorescence polarization (AID 1964);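 also: purified POS-1 fused to maltose binding protein made in E. coli; potency of compounds blocking POS-1 binding to fluorescent RNA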
T1 sequence (G5EF15 whole entry): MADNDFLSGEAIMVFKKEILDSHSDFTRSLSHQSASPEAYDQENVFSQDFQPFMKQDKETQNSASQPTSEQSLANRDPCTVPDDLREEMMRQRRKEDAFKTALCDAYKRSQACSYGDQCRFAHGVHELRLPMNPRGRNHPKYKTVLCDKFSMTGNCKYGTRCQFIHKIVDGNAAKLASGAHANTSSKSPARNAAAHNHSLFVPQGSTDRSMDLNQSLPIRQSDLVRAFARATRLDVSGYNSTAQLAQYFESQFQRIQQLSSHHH

[2] = biological target: Photoreceptor-specific nuclear receptor (Homo sapiens, UniProt Q9Y5X4); format: functional;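 also: potency for compounds that break the NR2E3 corepressor complex and count as activators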
Chain of Photoreceptor-specific nuclear receptor (Q9Y5X4 whole entry): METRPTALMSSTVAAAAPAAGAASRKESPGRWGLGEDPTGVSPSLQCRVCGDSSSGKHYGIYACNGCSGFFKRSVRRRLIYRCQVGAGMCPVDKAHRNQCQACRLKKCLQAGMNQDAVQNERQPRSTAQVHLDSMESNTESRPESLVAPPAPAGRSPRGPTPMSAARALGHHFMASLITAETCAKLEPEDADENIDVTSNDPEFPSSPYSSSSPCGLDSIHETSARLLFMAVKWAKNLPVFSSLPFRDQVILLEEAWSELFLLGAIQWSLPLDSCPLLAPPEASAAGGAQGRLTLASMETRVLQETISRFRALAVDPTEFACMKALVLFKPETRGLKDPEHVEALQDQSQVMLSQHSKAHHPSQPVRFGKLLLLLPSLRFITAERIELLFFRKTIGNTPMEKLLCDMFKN

[3] = biological target: Peroxisome proliferator-activated receptor gamma/Nuclear receptor corepressor 2 (Homo sapiens, UniProt P37231+Q9Y618); format: functional
Chain of Peroxisome proliferator-activated receptor gamma/Nuclear receptor corepressor 2 (P37231 whole entry): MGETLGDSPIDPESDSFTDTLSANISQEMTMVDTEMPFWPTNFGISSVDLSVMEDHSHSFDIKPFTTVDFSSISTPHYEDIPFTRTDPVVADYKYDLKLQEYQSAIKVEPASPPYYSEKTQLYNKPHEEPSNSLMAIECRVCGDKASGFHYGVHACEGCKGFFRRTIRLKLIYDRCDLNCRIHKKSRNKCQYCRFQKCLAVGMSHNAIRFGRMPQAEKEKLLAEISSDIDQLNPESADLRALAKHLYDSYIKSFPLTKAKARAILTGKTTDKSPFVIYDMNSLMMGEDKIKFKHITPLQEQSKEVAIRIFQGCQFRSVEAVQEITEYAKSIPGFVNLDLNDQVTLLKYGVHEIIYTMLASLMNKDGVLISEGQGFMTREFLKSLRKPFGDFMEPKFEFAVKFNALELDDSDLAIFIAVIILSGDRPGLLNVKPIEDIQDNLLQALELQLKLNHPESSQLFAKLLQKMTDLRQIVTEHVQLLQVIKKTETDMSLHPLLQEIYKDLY
Chain of Peroxisome proliferator-activated receptor gamma/Nuclear receptor corepressor 2 (Q9Y618 whole entry): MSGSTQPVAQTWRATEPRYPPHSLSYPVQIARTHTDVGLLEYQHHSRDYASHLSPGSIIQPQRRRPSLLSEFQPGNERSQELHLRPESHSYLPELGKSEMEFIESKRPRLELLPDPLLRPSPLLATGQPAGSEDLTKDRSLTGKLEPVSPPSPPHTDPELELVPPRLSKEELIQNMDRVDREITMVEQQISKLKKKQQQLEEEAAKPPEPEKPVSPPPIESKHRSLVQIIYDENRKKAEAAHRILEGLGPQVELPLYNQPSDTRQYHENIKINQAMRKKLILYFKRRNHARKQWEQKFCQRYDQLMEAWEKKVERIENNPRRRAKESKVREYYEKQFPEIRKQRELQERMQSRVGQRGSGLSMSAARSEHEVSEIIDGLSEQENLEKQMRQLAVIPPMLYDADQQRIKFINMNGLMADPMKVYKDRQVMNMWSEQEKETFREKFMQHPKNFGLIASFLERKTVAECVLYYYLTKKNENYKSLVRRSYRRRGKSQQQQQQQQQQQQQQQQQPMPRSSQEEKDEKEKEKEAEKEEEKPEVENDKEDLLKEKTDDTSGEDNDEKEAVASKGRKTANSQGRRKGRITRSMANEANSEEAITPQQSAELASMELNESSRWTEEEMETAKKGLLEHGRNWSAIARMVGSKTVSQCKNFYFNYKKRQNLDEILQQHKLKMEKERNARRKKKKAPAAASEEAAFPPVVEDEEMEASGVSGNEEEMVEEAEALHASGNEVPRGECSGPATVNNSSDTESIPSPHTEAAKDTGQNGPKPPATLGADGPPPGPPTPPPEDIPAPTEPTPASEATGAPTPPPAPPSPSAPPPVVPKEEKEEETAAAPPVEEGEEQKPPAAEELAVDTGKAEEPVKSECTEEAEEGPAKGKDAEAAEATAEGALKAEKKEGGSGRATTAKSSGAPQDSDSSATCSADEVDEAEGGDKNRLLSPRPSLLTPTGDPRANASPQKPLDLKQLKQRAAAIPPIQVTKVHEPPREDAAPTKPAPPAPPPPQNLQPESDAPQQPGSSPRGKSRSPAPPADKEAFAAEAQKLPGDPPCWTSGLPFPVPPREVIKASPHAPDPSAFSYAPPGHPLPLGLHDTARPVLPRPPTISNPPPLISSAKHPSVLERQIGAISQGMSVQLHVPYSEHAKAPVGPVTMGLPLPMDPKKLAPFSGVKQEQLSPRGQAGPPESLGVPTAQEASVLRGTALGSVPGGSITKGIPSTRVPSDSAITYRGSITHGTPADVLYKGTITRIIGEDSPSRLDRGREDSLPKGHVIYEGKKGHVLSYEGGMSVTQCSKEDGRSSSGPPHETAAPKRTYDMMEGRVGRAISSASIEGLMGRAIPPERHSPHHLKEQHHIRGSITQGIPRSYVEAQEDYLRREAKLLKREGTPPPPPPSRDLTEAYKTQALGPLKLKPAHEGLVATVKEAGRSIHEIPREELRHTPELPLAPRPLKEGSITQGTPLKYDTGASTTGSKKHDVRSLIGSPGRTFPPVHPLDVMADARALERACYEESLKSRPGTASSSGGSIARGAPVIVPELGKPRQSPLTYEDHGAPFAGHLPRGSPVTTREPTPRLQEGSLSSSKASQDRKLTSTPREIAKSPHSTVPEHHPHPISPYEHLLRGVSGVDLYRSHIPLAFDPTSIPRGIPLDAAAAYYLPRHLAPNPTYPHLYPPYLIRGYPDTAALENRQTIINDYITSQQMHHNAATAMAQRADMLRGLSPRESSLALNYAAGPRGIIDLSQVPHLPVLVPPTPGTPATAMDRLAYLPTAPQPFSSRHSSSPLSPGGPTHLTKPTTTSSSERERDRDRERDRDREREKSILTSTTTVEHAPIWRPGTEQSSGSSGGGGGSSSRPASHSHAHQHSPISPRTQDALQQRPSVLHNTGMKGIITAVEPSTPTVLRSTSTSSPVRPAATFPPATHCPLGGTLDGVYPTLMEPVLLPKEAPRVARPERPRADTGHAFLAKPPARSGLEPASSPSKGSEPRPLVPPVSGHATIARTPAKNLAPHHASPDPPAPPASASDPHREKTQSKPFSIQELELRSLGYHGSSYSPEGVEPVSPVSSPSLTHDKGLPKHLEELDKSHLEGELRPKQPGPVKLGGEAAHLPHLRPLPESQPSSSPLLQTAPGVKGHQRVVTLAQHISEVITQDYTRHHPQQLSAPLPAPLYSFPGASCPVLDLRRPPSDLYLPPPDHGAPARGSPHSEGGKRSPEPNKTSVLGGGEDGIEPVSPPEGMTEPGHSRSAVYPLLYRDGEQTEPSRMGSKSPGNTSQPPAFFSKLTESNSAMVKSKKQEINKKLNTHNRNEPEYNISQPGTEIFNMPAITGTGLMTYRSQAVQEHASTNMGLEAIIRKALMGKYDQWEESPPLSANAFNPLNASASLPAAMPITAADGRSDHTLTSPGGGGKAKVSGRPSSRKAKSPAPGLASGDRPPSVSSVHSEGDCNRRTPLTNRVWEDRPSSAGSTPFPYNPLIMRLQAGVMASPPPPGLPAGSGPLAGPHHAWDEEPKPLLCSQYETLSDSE

[4] = biological target: T2, Zinc finger protein mex-5 (Caenorhabditis elegans, UniProt Q9XUB2); assay: MEX-5/TCR-2 RNA interaction inhibitors, dose response, biochemical, C. elegans, fluorescence polarization (AID 1960)
T2 sequence (Q9XUB2 whole entry): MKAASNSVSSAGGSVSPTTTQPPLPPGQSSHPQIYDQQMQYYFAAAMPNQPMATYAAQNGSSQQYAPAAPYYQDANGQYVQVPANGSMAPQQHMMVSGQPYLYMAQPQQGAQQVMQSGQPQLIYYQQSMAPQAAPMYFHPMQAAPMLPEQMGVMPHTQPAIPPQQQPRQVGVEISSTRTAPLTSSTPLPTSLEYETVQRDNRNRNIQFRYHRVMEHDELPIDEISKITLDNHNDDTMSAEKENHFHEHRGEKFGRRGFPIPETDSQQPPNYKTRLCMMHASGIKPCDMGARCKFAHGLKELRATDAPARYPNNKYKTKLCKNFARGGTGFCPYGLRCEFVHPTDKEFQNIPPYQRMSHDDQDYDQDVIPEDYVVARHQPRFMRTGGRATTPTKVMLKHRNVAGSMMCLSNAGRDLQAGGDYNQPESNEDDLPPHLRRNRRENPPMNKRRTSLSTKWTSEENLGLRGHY

[5] = biological target: Ion channel NompC (Danio rerio, UniProt Q7T1G6); assay: Fluorescence counterscreen assay for TRPML3 agonists: dose response cell-based high-throughput screening assay to identify agonists of the transient receptor potential channel N1 (TRPN1). [Related pubchem assays: 1526, 1424, 1448 ]; format: functional
Chain of Ion channel NompC (Q7T1G6 whole entry): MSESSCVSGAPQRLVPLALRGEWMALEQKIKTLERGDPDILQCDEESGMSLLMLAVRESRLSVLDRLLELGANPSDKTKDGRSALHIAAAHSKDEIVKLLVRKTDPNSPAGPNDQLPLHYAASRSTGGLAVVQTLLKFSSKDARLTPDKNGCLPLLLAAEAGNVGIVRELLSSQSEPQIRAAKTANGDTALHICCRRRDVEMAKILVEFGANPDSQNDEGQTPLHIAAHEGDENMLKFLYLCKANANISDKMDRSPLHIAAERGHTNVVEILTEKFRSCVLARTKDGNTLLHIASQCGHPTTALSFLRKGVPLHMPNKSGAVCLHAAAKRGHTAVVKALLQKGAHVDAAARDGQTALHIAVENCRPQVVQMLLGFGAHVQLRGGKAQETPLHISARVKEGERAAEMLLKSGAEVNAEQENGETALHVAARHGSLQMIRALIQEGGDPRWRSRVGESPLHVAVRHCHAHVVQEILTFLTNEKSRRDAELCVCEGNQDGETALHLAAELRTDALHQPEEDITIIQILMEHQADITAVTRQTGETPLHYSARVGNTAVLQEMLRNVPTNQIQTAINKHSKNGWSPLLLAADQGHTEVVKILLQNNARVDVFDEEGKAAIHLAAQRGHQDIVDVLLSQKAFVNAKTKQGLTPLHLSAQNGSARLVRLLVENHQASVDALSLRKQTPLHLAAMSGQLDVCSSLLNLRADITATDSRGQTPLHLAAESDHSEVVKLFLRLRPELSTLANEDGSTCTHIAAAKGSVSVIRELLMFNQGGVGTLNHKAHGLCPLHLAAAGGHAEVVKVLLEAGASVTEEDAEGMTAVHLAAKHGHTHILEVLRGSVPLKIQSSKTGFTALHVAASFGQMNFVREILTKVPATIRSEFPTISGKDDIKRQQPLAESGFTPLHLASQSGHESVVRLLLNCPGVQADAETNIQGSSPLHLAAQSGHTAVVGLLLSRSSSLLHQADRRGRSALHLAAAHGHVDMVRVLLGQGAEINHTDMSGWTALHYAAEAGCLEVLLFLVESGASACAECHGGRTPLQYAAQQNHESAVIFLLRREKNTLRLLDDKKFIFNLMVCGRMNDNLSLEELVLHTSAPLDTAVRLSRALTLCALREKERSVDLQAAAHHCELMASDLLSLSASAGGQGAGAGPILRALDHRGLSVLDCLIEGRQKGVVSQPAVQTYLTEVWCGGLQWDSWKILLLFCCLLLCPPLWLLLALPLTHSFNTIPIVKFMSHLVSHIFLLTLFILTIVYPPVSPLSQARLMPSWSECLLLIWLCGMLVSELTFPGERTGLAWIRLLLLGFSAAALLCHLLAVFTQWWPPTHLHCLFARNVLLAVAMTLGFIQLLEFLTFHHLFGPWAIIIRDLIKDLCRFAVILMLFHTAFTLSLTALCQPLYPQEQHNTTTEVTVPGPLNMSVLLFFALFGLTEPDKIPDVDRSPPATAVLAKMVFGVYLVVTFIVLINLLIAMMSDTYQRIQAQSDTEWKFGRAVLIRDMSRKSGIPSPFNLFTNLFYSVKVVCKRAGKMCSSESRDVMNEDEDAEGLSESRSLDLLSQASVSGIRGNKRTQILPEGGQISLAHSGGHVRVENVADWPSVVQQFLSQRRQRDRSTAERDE

[6] = biological target: T3, Mucolipin-3 (Homo sapiens, UniProt Q8TDD5); assay: Dose response cell-based high-throughput screening assay for agonists of the transient receptor potential channel ML3 (TRPML3). [Related pubchem assays: 1526, 1424, 1448 ]; format: functional
T3 sequence (Q8TDD5 whole entry): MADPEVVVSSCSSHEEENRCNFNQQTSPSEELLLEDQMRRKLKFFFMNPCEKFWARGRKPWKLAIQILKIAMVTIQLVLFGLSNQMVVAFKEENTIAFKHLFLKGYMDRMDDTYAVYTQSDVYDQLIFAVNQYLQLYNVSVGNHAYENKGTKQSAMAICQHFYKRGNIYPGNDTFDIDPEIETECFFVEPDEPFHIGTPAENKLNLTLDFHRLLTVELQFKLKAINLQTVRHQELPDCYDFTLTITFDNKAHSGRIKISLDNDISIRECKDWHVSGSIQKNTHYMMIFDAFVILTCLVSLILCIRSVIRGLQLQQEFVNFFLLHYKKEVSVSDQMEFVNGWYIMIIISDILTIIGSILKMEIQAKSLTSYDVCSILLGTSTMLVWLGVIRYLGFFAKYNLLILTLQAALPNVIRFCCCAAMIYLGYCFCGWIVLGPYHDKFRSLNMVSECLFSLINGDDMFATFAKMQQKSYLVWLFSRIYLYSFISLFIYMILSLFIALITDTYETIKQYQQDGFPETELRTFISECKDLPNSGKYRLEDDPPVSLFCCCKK

[7] = cytotoxicity in HEK-293T cells, dose response, cytotoxicity control for BCR NF-kB inhibitor project, luminescence, B-cell screen hits (AID 489021); format: functional, cell-based;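 also: HEK-293T cells carrying an NF-kB luciferase reporter; cells exposed to compound for about 14 hours before viability readout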
[8] = biological target: T4, Corticotropin-releasing factor receptor 2/Corticotropin-releasing factor-binding protein (Homo sapiens, UniProt P24387+Q13324); assay: activators of CRF receptor 2 with binding protein – uHTS hits, confirmation (AID 602473); format: functional; settings: read-out: EC50_Mean
T4 sequence (Q13324 whole entry): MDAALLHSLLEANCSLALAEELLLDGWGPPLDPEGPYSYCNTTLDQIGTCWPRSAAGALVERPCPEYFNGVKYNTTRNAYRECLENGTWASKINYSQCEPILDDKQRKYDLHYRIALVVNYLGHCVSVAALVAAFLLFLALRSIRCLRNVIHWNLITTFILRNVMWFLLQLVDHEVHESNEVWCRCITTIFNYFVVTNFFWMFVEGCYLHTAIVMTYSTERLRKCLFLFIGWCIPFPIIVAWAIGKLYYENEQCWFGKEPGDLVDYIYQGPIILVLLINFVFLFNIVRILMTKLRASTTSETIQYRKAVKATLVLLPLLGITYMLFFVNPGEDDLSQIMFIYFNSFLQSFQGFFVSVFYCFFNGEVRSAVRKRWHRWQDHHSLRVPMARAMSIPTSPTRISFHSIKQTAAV
T4 sequence (P24387 whole entry): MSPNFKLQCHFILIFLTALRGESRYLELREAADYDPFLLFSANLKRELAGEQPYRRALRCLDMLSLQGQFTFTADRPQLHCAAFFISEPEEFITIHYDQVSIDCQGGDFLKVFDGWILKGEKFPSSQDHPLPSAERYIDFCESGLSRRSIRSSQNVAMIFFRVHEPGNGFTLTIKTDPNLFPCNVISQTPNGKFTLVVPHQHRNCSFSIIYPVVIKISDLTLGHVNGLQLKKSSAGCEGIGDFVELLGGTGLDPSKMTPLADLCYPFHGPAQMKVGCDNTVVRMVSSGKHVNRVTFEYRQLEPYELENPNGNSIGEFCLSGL

[9] = biological target: T5, Neuropeptide Y receptor type 2 (Homo sapiens, UniProt P49146); format: functional, cell-based;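 also: HEK293 cells expressing the receptor and a CNG channel; stimulus was NPY near EC95 followed by isoproterenol to raise cAMP; antagonist potency measured as restoring cAMP signal that NPY suppresses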
T5 sequence (P49146 whole entry): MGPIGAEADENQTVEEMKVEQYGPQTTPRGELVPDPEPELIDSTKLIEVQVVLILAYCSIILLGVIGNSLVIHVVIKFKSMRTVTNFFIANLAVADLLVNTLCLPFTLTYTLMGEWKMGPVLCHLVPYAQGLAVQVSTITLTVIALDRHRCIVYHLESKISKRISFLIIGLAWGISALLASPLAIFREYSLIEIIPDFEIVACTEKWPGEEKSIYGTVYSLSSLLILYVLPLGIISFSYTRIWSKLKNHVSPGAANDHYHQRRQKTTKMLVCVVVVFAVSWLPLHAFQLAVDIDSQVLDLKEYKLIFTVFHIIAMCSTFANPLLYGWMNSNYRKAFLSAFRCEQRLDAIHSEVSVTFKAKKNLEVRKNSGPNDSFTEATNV

[10] = biological target: T6, Neuropeptide Y receptor type 1 (Homo sapiens, UniProt P25929); format: functional;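 also: HEK293 cells with a CNG channel challenged with NPY then isoproterenol; potency as antagonist that reverses NPY suppression of cAMP signal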
T6 sequence (P25929 whole entry): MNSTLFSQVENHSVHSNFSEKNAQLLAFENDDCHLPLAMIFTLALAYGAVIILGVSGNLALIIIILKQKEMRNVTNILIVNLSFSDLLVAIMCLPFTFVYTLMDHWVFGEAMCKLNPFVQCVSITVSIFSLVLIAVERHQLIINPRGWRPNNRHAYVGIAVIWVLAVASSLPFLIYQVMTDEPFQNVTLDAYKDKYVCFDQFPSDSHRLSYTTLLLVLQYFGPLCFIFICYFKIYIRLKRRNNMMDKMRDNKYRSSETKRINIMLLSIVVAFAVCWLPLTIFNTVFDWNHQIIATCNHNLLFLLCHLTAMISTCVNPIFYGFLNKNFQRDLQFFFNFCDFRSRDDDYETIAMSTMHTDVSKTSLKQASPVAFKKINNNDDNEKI

[11] = CRF-BP/CRF-R2 complex antagonists, dose response, cell-based, uHTS hits, 384-well (AID 651639); format: functional, Homo sapiens; settings: read-out: IC50_Mean
[12] = biological target: T4, Corticotropin-releasing factor receptor 2/Corticotropin-releasing factor-binding protein; assay: Dose Response confirmation of uHTS hits for small molecule antagonists of the CRF-binding protein and CRF-R2 receptor complex.; format: functional; settings: read-out: IC50_Mean
[13] = biological target: Neurotensin receptor type 1 (Homo sapiens, UniProt P30989); format: functional;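 also: Image-based confirmatory dose-response assay measuring agonist activity at NTR1; NTR1-expressing U2OS osteosarcoma cells imaged for beta-arrestin GFP spot formation; agonist potency where compounds increase beta-arrestin recruitment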
[14] = biological target: T5, Neuropeptide Y receptor type 2; assay: NPY-Y2 antagonist potency, selectivity check, dose response, counter-screen for NPY-Y1 antagonist project, cell-based (AID 1278); format: functional
[15] = biological target: T6, Neuropeptide Y receptor type 1; assay: NPY-Y1 receptor antagonist potency, dose response, cell-based (AID 1277); format: functional
[16] = biological target: Melanin-concentrating hormone receptor 1 (Homo sapiens, UniProt Q99705); assay: Fluorescence-based counterscreen for antagonists of the G-protein coupled receptor 7 (GPR7): cell-based high throughput dose response assay to identify antagonists of the melanin-concentrating hormone receptor 1 (MCHR1).; format: functional
[17] = biological target: T7, Neuropeptides B/W receptor type 1 (Homo sapiens, UniProt P48145); assay: Fluorescence-based dose response cell-based high throughput screening assay to identify antagonists of the G-protein coupled receptor 7 (GPR7). [Related pubchem assays: 1952 (Screening assay (GPR7 antagonists).), 1880 (Summary AID.)]; format: functional
T7 sequence (P48145 whole entry): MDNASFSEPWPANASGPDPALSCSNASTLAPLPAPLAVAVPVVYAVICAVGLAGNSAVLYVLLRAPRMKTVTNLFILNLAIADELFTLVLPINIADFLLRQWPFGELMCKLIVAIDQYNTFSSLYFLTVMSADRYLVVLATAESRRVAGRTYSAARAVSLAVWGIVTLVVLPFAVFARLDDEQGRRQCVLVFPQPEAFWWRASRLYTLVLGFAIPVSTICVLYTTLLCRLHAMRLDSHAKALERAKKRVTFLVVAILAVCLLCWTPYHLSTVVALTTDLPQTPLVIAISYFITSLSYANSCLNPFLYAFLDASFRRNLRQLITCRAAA

[18] = biological target: T8, Streptokinase A (Streptococcus pyogenes serotype M1, UniProt P10520); assay: S. pyogenes streptokinase expression inhibitors, potency, dose response, plasminogen activation absorbance, OD405 (AID 1914); format: functional, Streptococcus pyogenes M1 GAS;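 also: secreted streptokinase activity via plasminogen activation per viability signal from cell pellet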
T8 sequence (P10520 whole entry): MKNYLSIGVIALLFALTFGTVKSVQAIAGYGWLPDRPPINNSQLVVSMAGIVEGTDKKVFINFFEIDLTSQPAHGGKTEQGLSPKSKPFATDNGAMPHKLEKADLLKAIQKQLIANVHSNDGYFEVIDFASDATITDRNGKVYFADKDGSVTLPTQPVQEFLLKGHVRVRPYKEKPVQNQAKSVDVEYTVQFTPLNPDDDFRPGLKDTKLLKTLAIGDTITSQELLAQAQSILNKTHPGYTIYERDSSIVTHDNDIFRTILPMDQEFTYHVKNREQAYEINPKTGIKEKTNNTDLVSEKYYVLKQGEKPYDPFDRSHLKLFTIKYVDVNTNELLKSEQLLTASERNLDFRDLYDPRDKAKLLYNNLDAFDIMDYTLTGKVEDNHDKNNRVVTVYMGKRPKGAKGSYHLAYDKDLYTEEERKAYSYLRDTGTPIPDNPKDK

[19] = tested on: Streptococcus; assay: Group A Streptococcus viability loss, dose response, counter-screen for streptokinase expression inhibitor project, luminescence, BacTiterGlo (AID 1915); format: functional, organism-based;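 also: potency for reduction of bacterial viability or growth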
[20] = tested on: Streptococcus sp. 'group A'; assay: growth inhibition of control SK(-) GAS strain, dose response, counter-screen for streptokinase expression inhibitor project, luminescence, kanamycin, BacTiterGlo, confirmation (AID 1900); format: functional, organism-based
[21] = microbe, parasite or virus in culture; format: functional; settings: Mycobacterium tuberculosis
[22] = tested on: INS1; assay: beta cell apoptosis inhibitors, cytokine rescue, dose response, luminescence, retest (AID 449756); format: functional, cell-based; settings: Rattus norvegicus;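 also: cell death triggered by IL-1 beta plus TNF-alpha plus IFN-gamma mixture; protective hits raise ATP signal compared with cytokine alone wells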

CC(=O)Nc1ccc(NC(=O)C(C)OC(=O)/C(C#N)=C/c2ccc(N(C)C)cc2)cc1 (stereo not given)
EC50 [1]: 26.9 µM (active) | IC50 [2]: > 39.8 µM (not active) | IC50 [3]: > 39.8 µM (not active) | EC50 [4]: 86.3 µM (inconclusive)

Cc1ccc(N(C)S(=O)(=O)c2ccc(C)cc2)cc1
EC50 [5]: > 29.9 µM (not active) | EC50 [6]: 5.1 µM (active)

CCn1c(=O)cc(OCC(=O)N(C)C2CCCCC2)c2ccccc21
IC50 [7]: > 80 µM (inactive)

COC(=O)c1ccc(CSc2nc3ccccc3c(=O)n2-c2ccccc2)o1
EC50 [8]: > 53 µM (inactive) | IC50 [9]: 3.14 µM (active) | IC50 [10]: 5.21 µM (active) | IC50 [11]: 13.6 µM (active) | IC50 [12]: 0.858 µM (active)

O=C(C1=C(O)C(=O)N(CCN2CCOCC2)C1c1cccs1)c1cc2ccccc2o1 (stereo not given)
IC50 [2]: > 39.8 µM (not active) | IC50 [3]: 6.71 µM (active)

O=C(Nc1ccc2oc(-c3ccccc3F)nc2c1)c1ccc2c(c1)OCCO2
EC50 [13]: 31.1 µM (inactive)

O=C(c1ccco1)c1cn(Cc2ccc(Cl)cc2)c2ccccc12
IC50 [14]: 9.22 µM (active) | IC50 [15]: 6.69 µM (active)

CCCCN(C)C(=O)c1nc2ccccn2c1CN1CCN(C/C=C/c2ccccc2)CC1
IC50 [16]: 16.6 µM (not active) | IC50 [17]: > 43.8 µM (not active)

O=C(Cc1ccc(Cl)c(Cl)c1)Nc1ccccc1N1CCOCC1
EC50 [5]: 13.4 µM (not active) | EC50 [6]: 2.89 µM (active)

Oc1cccc(-c2nc3ccc4ccccc4c3c3c2CCC3)c1
EC50 [18]: 27.8 µM (active) | IC50 [9]: 5.22 µM (active) | IC50 [10]: 7.68 µM (active) | EC50 [19]: 53.6 µM (active) | EC50 [20]: 10 µM (active) | CC50 [21]: > 40 µM (active)

CC(=O)OC1COC(OC2C(O)C(C)OC(OC3C(OC4CCC5(C)C(CCC6(C)C5CC=C5C7CC(C)(C)CCC7(C(=O)O)CCC56C)C4(C)CO)OCC(O)C3O)C2O)C(O)C1OC(C)=O (stereo not given)
IC50 [14]: > 35 µM (not active) | IC50 [15]: > 35 µM (not active) | AC50 [22]: 5.67 µM (active)
